From patent US11208629B2, “Non-human primate induced pluripotent stem cell derived hepatocytes and uses thereof” (Hoffmann-La Roche Inc., priority 2016, dated 2021)
Each block holds one compound with its values, some of them ahead of it.

Key:
Cynomolgus IPSCs = experiment: Hepatocyte differentiation of cynomolgus IPSCs (supplement optimisation)
Procedure: To initialize differentiation, the cells are incubated in a defined medium comprising a Wnt pathway activator.
Generally, media change was performed every day until day 16 and afterwards every second day. Basic medium for differentiation was MT basic medium (DMEM/F12+Glutamax with insulin 7 μg/ml, monothioglycerole 450 μM, 1× Lipid concentrate, BSA 5 mg/ml, sodium selenite 14 ng/ml, 1× non-essential amino acids, heparin 2 mg/ml, transferrin 15 μg/ml, 220 μM ascorbic acid-2-phosphate) or changing to RPMI1640 medium+B27 1:50+non-essential amino acids 1:100 from day 3 of differentiation onwards. On day 1 of differentiation, medium was changed to MT basic medium with 100 ng/ml ActivinA, 10 μM Ly294002 and 1 μM CP21 (Roche GSK3β inhibitor). Then, cells were treated for two days with 100 ng/ml ActivinA, 0.25 μM LDN193189 and 1 μM CP21. At day 4, the medium was changed for three days to the supplements 50 ng/ml ActivinA, 2% knock-out serum replacement (KSR) and 0.5% DMSO. The protocol was modified to a prolonged step of high ActivinA which consisted of 100 ng/ml ActivinA at day 4 of differentiation. To induce hepatic specification, cells were maintained for four days in medium supplemented with 2% KSR, 10 ng/ml BMP4, 10 ng/ml FGF2 or FGF10 and 0.5% DMSO. […] Modification included the addition of 1 μM DAPT between day 11 and day 20. Further modifications included the change of the basis medium for maturation at day 11 to HBM medium+SingleQuots™ (Lonza).
At day 21 of differentiation, efficiency of differentiation was analyzed using two different quantification methods. First, the area covered by ALB positive cells was determined and second the area of cells with typical hepatocyte morphology was evaluated (FIG. 6A and FIG. 6B).

[1] = tested on: NHP-IPSC-derived hepatocytes; experiment: Hepatotoxicity assay (WST-1 cell viability); type: cell-based, Cynomolgus monkey; conditions: 100 μM, 24 hours, WST-1, MACS-enriched cells in matrigel sandwich
Procedure: NHP-IPSC-derived hepatocytes were enriched using MACS and replated in matrigel sandwich condition as described above. To assess cell response to hepatotoxic compounds cells were treated with 100 μM troglitazone (Sigma) for 24 hours. Cell viability was measured using the WST-1 reagent (Sigma). 10 μl WST-1 reagent were added directly to the medium (1:10 dilution) and cells were incubated for 4 hours at 37° C., 5% CO2. Plates were stirred for 15 seconds and absorbance at 405 nm was measured.
To assess the feasibility of NHP IPSC-derived hepatocytes as model system for drug-induced liver injury, we treated the hepatocytes with Troglitazone, a small molecule with known hepatotoxic effects.

efficiency of differentiation of pluripotent stem cells into hepatocytes (Cynomolgus IPSCs; CP21 1 μM, cell density 45000/cm^2, tested 0 to 2 μM, 30000 to 75000/cm^2): most efficient differentiation
Compound: Cn1cc(C2=C(c3cccc(N)c3)C(=O)NC2=O)c2ccccc21 [CP21, 3-(3-Amino-phenyl)-4-(1-methyl-1H-indol-3-yl)-pyrrole-2,5-dione]
cell viability during differentiation (Cynomolgus IPSCs; CP21 concentrations above 2 μM): decreased cell viability

Compound: FGF2: fibroblast growth factor used for hepatic specification
ALB positive cells at day 21 (Cynomolgus IPSCs; 10 ng/ml FGF2 versus FGF10, hepatic specification step): more ALB positive cells than FGF10 treatment

Compound: Cc1c(C)c2c(c(C)c1O)CCC(C)(COc1ccc(CC3SC(=O)NC3=O)cc1)O2 (stereo not shown) [Troglitazone]
cell viability compared to control cells [1]: decrease in cell viability
